Columns and labels:
[1] = Aqueous solubility of the compound; format: physicochemical; settings: buffer
Homo sapiens [2] = species on record: Homo sapiens; assay: Selectivity index, ratio of IC50 for human recombinant CYP1A1 to IC50 for human recombinant CYP1B1 using 7-ethoxyresorufin as substrate in presence of glucose-6-phosphate, glucose-6-phosphate dehydrogenase and NADPH-generating system by fluorometry
Cytochrome P450 1A1 = biological target: T1, Cytochrome P450 1A1 (Homo sapiens, UniProt P04798); assay: Inhibition of human recombinant CYP1A1 using 7-ethoxyresorufin as substrate in presence of glucose-6-phosphate, glucose-6-phosphate dehydrogenase and NADPH-generating system incubated for 15 mins by fluorometry; format: ADME
T1 sequence (P04798 whole entry): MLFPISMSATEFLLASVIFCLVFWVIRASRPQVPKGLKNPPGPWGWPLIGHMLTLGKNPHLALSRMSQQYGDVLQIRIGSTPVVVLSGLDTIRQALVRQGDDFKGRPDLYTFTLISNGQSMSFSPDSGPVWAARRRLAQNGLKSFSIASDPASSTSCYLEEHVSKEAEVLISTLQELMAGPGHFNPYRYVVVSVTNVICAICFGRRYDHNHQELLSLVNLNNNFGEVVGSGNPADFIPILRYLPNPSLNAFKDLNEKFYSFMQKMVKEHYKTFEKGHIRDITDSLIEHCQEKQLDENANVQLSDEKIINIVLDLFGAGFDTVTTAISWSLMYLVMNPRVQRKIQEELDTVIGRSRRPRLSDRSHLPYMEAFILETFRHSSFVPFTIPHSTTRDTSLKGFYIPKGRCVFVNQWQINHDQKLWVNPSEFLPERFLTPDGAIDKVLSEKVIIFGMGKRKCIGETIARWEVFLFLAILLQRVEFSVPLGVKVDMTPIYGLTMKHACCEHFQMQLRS

Cytochrome P450 1A2 = biological target: T2, Cytochrome P450 1A2 (Homo sapiens, UniProt P05177); assay: Inhibition of human recombinant CYP1A2 using 7-ethoxyresorufin as substrate in presence of glucose-6-phosphate, glucose-6-phosphate dehydrogenase and NADPH-generating system incubated for 50 mins by fluorometry; format: ADME
T2 sequence (P05177 whole entry): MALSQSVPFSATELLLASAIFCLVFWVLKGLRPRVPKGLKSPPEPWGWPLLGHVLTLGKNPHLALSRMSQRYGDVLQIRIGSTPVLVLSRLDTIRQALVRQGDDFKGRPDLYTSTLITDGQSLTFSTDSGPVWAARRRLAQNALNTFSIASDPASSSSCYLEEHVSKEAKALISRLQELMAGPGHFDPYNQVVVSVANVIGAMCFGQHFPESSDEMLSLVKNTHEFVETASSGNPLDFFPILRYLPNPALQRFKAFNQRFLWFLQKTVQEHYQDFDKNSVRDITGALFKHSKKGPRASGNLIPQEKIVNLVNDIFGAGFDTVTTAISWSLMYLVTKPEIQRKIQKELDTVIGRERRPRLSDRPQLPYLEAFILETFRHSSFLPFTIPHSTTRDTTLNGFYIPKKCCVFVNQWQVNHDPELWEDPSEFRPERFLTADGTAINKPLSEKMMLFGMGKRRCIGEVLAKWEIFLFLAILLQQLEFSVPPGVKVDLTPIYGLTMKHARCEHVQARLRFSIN

Cytochrome P450 1B1 [3] = biological target: T3, Cytochrome P450 1B1 (Homo sapiens, UniProt Q16678); assay: Inhibition of human recombinant CYP1B1 using 7-ethoxyresorufin as substrate in presence of glucose-6-phosphate, glucose-6-phosphate dehydrogenase and NADPH-generating system incubated for 35 mins by fluorometry
T3 sequence (Q16678 whole entry): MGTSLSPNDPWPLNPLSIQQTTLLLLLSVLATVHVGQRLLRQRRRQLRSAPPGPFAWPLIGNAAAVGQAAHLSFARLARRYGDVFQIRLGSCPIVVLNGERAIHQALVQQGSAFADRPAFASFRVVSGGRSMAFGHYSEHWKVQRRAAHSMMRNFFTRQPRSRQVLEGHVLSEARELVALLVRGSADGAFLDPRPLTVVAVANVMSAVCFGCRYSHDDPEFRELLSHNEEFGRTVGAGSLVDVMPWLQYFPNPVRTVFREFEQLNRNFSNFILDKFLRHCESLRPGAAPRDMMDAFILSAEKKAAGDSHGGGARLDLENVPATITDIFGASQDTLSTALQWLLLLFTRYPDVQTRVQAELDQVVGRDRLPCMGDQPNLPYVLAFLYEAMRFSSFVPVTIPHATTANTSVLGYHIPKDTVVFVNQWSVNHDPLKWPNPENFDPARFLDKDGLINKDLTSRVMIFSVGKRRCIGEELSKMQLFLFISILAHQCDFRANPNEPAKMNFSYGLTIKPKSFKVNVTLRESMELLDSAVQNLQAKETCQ

Homo sapiens [4] = species on record: Homo sapiens; assay: Selectivity index, ratio of IC50 for human recombinant CYP1A2 to IC50 for human recombinant CYP1B1 using 7-ethoxyresorufin as substrate in presence of glucose-6-phosphate, glucose-6-phosphate dehydrogenase and NADPH-generating system by fluorometry
Cytochrome P450 1B1 [5] = biological target: T3, Cytochrome P450 1B1; assay: Potency index, ratio of IC50 for ANF to IC50 for test compound for inhibition of human recombinant CYP1B1 using 7-ethoxyresorufin as substrate in presence of glucose-6-phosphate, glucose-6-phosphate dehydrogenase and NADPH-generating system incubated for 35 mins by fluorometry; settings: for selectivity ratio at 35 min: read-out: Ratio IC50

Row | solubility [1] [mg/mL] | Ratio IC50 (Homo sapiens [2]) | IC50 (Cytochrome P450 1A1) [nM] | IC50 (Cytochrome P450 1A2) [nM] | IC50 (Cytochrome P450 1B1 [3]) [nM] | Ratio IC50 (Homo sapiens [4]) | Structure (SMILES) | selectivity ratio at 35 min (Cytochrome P450 1B1 [5]) | relative potency vs ANF (IC50 ratio) at 35 min (Cytochrome P450 1B1 [5])
1 | > 20 | 2.4 | 153 | > 1000 | 63.8 | – | CN1CCN(c2ccc(-c3cc(=O)c4ccc5ccccc5c4o3)cc2)CC1 | – | –
2 | – | 32.1 | 16.7 | 94.2 | 0.52 | 181 | O=c1cc(-c2cccc(C(F)(F)F)c2)oc2c1ccc1ccccc12 | 11.3 | –
3 | – | 10.6 | 5.2 | 73.6 | 0.49 | 150 | O=c1cc(-c2cccc(Cl)c2)oc2c1ccc1ccccc12 | – | 12
4 | – | 15.5 | 30.9 | 318 | 2 | 159 | O=c1cc(-c2cccc(N3CCOCC3)c2)oc2c1ccc1ccccc12 | 3 | –

From ChEMBL document CHEMBL4376853, “Synthesis and structure-activity relationship studies of α-naphthoflavone derivatives as CYP1B1 inhibitors” (Eur J Med Chem, 2020)
